Reference: US7517893B2, “Bichalcophenes and their prodrugs as antiprotozoal agents” (The University of North Carolina at Chapel Hill, priority 2005, dated 2009)
Where “and” joins values, the source holds several entries; their conditions need not be identical. Identical values can stand only once. Counter-ions that a name gives are not always drawn. Like-named read-outs stand apart in the source and are kept apart here.

Tests used:
[1] = tested on: polyA.polyT; assay: DNA binding study: increase in thermal melting (ΔTm) of polyA.polyT; conditions: increase in thermal melting of polyA.polyT in the presence of compound
Protocol: DNA binding studies with polyA.polyT were carried out using established protocols. See Wilson, W. D., et al., Biochemistry, 32, 4098-4104 (1993).

[2] = tested on: L-6 rat mycoblast cells; assay: Cell toxicity assay in L-6 rat mycoblast cells; assay type: cell-based; conditions: assay for cell toxicity, read-out: L6 Rat Mycoblast Cells IC50
Protocol: (§1) In vitro antiprotozoal activities were measured following established protocols. […] E., et al., Bioorg.

[3] = tested on: STIB 900 strain of Trypanosoma brucei rhodesiense; assay: In vivo activity against T. b. r. STIB 900 in a mouse model; conditions: for Survival: average days of survival, mice, untreated controls die between day 7 and 8; for Survival / Cures: days 3-6 post-infection; for in vivo activity against T. b. r. (in words) / cure rate compared with pentamidine and furamidine (in words): murine model; for cure rate compared with pentamidine and furamidine (in words): T. b. r. STIB 900; for Cures: number of mice that survive and are parasite free for 60 days, groups of four mice
Protocol: The activities of compounds 6, 8, 14, 16 and 17, against the STIB 900 strain of Trypanosoma brucei rhodesiense (T. b. r.) in a mouse model are shown in Table 2. These values are compared to those of pentamidine and furamidine. Groups of four mice were infected intraperitoneally with […] bloodstream forms of T. b. r. STIB 900 which originates from a patient in Tanzania. On days 3, 4, 5, and 6 post-infection the experimental groups were treated with the drugs either by the intraperitoneal or for prodrugs by the oral route. Usually the highest tolerated dose was used which was determined in a pretoxicological experiment. Parasitemia of the mice was checked daily up to day 14 post-infection and thereafter 2 times per week up to day 60. One group of mice was not treated and acted as control. For relapsing mice, the day of death was recorded and the survival time determined.

[4] = tested on: Plasmodium falciparum; assay: In vitro antiprotozoal activity against P. f.; assay type: cell-based
Protocol: as §1

[5] = tested on: Trypanosoma brucei rhodesiense; assay: In vitro antiprotozoal activity against T. b. r.; assay type: cell-based
Protocol: as §1

[6] = tested on: Leishmania donovani; assay: In vitro antiprotozoal activity against L. d.; assay type: cell-based; conditions: read-out: L.d. C50
Protocol: as §1

[7] = tested on: Trypanosoma brucei rhodesiense, Plasmodium falciparum, Leishmania donovani; assay: In vitro antiprotozoal activities, overall statement on prodrugs; assay type: cell-based; conditions: absence of the enzymes needed for bioconversion to the active diamidines
Protocol: In vitro antiprotozoal activities were measured following established protocols. See Ismail, M. A., et al., J. Med. Chem., 46, 4761-4769 (2003); Stephens, C. E., et al., Bioorg. Med. Chem. Lett., 13, 2065-2069 (2003) (in vitro assay against Leishmania donovani). The activities of compounds 8, 14, 16, 17, 19, 22, 26a, 26b, 29a, 29b, and 33, 39, and 45 against Trypanosoma brucei riodesiense (T. b. r.), Plasmodium falciparum (P. f.), Leishmania donovani (L. d.), and L-6 rat mycoblast cells (as an assay for cell toxicity) are shown in Table 1. These values are compared to those of pentamidine and furamidine.

[8] = Trypanosoma brucei, RHODESIENSE

melting point [°C] | Structure (SMILES) | IC50 [2] [nM] | IC50 ([4]; Plasmodium falciparum) [nM] | IC50 [5, 8] [nM] | IC50 [6] [nM] | further results
 | N=C(N)c1ccc(-c2ccc(-c3ccc(C(=N)N)o3)o2)cc1 [Compound 8, 5′-(4-Amidinophenyl)-2,2′-bifuran-5-carboxamidine] | 37800 | 41.5 |  |  | Δ Tm [1]: 10.8 °C; Survival ([3]; ip, 20 mg/kg): >45.5 days; in vivo activity against T. b. r. (in words) [3]: good in vivo activity; cure rate compared with pentamidine and furamidine (in words) [3]: better cure rates than pentamidine and furamidine; Cures ([3]; ip, 20 mg/kg): 2/4
 | CC(=O)O.N=C(N)c1ccc(-c2ccc(-c3ccc(C(=N)N)o3)o2)nc1 [Compound 14, 6-(5′-Amidino-2,2′-bifuran-5-yl)-nicotinamidine acetate salt] | 26900 |  |  |  | Δ Tm [1]: 7.1 °C; Survival ([3]; ip, 10 mg/kg): >51.25 days; in vivo activity against T. b. r. (in words) [3]: good in vivo activity; cure rate compared with pentamidine and furamidine (in words) [3]: better cure rates than pentamidine and furamidine; Cures ([3]; ip, 10 mg/kg, acetate salt, 10 mg/kg): three mice out of four and 3/4
 | N=C(N)c1ccc2nc(-c3ccc(-c4ccc(C(=N)N)o4)o3)[nH]c2c1 [Compound 45] | 41800 |  |  |  | Δ Tm [1]: 23.2 °C
 | N/C(=N\O)c1ccc(-c2ccc(-c3ccc(-c4ccc(/C(N)=N\O)cc4)o3)o2)cc1 [Compound 16, 5,5′-bis-(4-N-Hydroxybenzamidine)-2,2′-bifuran] | > 182000 | 2960 | 8700 |  | Survival ([3]; po, 100 mg/kg): 5.5 days; Cures ([3]; po, 100 mg/kg): 0/4; in vitro activity (in words) [7]: poor in vitro activity
 | N=C(NO)c1ccc(-c2ccc(-c3ccc(C(=N)NO)o3)o2)cc1 [Compound 6, N-Hydroxy-5′-[4-(N-hydroxyamidino)-phenyl]-2,2′-bifuran-5-carboxamidine] |  |  |  |  | Survival ([3]; po, 75 mg/kg): 20 days; Cures ([3]; po, 75 mg/kg): 0/4; in vitro activity (in words) [7]: poor in vitro activity
> 300 | N=C(N)c1ccc(-c2ccc(-c3ccc(-c4ccc(C(=N)N)cn4)o3)o2)nc1 (as salt: salt) [Compound 22, 5,5′-Bis-(5-amidino-2-pyridyl)-2,2′-bifuran] |  |  |  |  | 
 | N=C(N)c1ccc(OCCCCCOc2ccc(C(=N)N)cc2)cc1 [Pentamidine, reference compound] |  |  |  | 2000 | Survival ([3]; ip, 20 mg/kg): >42.75 days; Cures ([3]; ip, 20 mg/kg): 0/4
> 300 | N=C(N)c1ccc(-c2ccc(-c3ccc(-c4ccc(C(=N)N)cc4)s3)s2)cc1 [Compound 26a, 5,5′-Bis-(4-amidinophenyl)-2,2′-bithiophene] | 89400 | ≤ 22 | ≤ 26 |  | IC50 [5]: 15 nM; IC50 [4]: 22 nM
 | CONC(=N)c1ccc(-c2ccc(-c3ccc(-c4ccc(C(=N)NOC)cc4)o3)o2)cc1 [Compound 19, 5,5′-Bis-[4-(N-methoxyamidino)phenyl]-2,2′-bifuran] | > 133000 | > 7400 | 36000 |  | in vitro activity (in words) [7]: poor in vitro activity
248 to 250 | N=C(NO)c1ccc(-c2ccc(-c3ccc(C(=N)NO)o3)o2)nc1 [Compound 13, N-Hydroxy-6-[5′-(N-hydroxyamidino)-2,2′-bifuran-5-yl]-nicotinamidine] |  |  |  |  | 
 | Cl.N=C(N)c1ccc(-c2ccc(-c3ccc(-c4ccc(C(=N)N)cc4)o3)o2)cc1 [Compound 17, 5,5′-bis-(4-Amidinophenyl)-2,2′-bifuran hydrochloride salt] | 10700 | ≤ 22 | 126 | 1000 | Δ Tm [1]: 23.6 °C; Survival ([3]; ip, 10 mg/kg): 24 days; Cures ([3]; ip, 10 mg/kg): 0/4; IC50 ([4]; hydrochloride salt): 20 nM
 | N=C(N)c1ccc(-c2ccc(-c3ccc(-c4ccc(C(=N)N)cn4)o3)o2)nc1 [Compound 22, 5,5′-Bis-(5-amidino-2-pyridyl)-2,2′-bifuran] | 5100 | 29 | 70 | > 100000 | 
> 300 | N=C(N)c1ccnc(-c2ccc(-c3ccc(-c4cc(C(=N)N)ccn4)s3)s2)c1 [Compound 26b, 5,5′-Bis-(4-amidino-2-pyridyl)-2,2′-bithiophene] | > 159000 | 34 | 36 | > 50000 | 

Structure (SMILES) | melting point [°C] | IC50 [2] [nM] | IC50 ([4]; Plasmodium falciparum) [nM] | IC50 [5, 8] [nM] | IC50 [6] [nM] | further results
N=C(N)c1ccnc(-c2ccc(-c3ccc(-c4cc(C(=N)N)ccn4)[se]3)[se]2)c1 [Compound 29b, 5,5′-Bis-(4-amidino-2-pyridyl)-2,2′-biselenophene] | > 300 | > 144000 | 76 | 153 | 19800 | 
N=C(N)c1ccc(-c2ccc(-c3ccc(-c4ccc(C(=N)N)cc4)[se]3)[se]2)cc1 [Compound 29a, 5,5′-Bis-(4-amidinophenyl)-2,2′-biselenophene] | > 300 | 13400 | ≤ 22 | ≤ 26 |  | IC50 [5]: 26 nM; IC50 [4]: 14 nM
